Experimental data as given in US10034883B2, “Mesoporous dosage forms for poorly soluble drugs” (SIEGFRIED AG, priority 2013, dated 2018).

Assay: First trials dissolving rivaroxaban into Soluplus polymer
Assay type: physicochemical
Conditions: total API/Polymer ratio=0.1

## O=C(NC[C@H]1CN(c2ccc(N3CCOCC3=O)cc2)C(=O)O1)c1ccc(Cl)s1 [rivaroxaban]
  maximum amount of rivaroxaban dissolvable into Soluplus: ≤ 10%
